Results from PubChem BioAssay AID256 (DTP/NCI, 2004).
Several values for one entry are separate records, joined by “and”; a condition that tells them apart may be missing. Equal values may be shown once. Toxic doses and inconclusive results are not listed. How the source made its calls: active means survival T/C of 150% or more; inactive means T/C below 125% in these data.

Tested on: CD2F1 mice, L1210 leukemia ip, survival T/C
Experiment: NCI In Vivo Anticancer Drug Screen. Data for tumor model L1210 Leukemia (intraperitoneal) in CD2F1 (CDF1) mice
Conditions: higher = longer survival
In short: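 Mice carrying a transplanted tumor received test compound or vehicle alone. The value is the measurement in the treated group divided by that in the vehicle-treated control group.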

[1] = endpoint: mean survival time, dose: 100.0 mg/kg/injection, schedule: Q04DX002 (ip), vehicle: saline
[2] = endpoint: mean survival time, dose: 200.0 mg/kg/injection, schedule: Q04DX002 (ip), vehicle: saline
[3] = endpoint: mean survival time, dose: 100.0 mg/kg/injection, schedule: Q04DX003 (ip), vehicle: saline with Tween-80
[4] = endpoint: mean survival time, dose: 200.0 mg/kg/injection, schedule: Q04DX003 (ip), vehicle: saline with Tween-80
[5] = endpoint: mean survival time, dose: 400.0 mg/kg/injection, schedule: Q04DX003 (ip), vehicle: saline with Tween-80
[6] = endpoint: mean survival time, dose: 50.0 mg/kg/injection, schedule: Q01DX009 (ip), vehicle: Klucel (hydroxypropylcellulose) (HPC)
[7] = endpoint: mean survival time, dose: 100.0 mg/kg/injection, schedule: Q01DX009 (ip), vehicle: Klucel (hydroxypropylcellulose) (HPC)
[8] = endpoint: mean survival time, dose: 200.0 mg/kg/injection, schedule: Q01DX009 (ip), vehicle: Klucel (hydroxypropylcellulose) (HPC)
[9] = endpoint: mean survival time, dose: 100.0 mg/kg/injection, schedule: Q01DX001 (ip), vehicle: saline with Tween-80
[10] = endpoint: mean survival time, dose: 200.0 mg/kg/injection, schedule: Q01DX001 (ip), vehicle: saline with Tween-80
[11] = endpoint: mean survival time, dose: 400.0 mg/kg/injection, schedule: Q01DX001 (ip), vehicle: saline with Tween-80
[12] = endpoint: mean survival time, dose: 100.0 mg/kg/injection, schedule: Q01DX009 (ip), vehicle: saline with Tween-80
[13] = endpoint: mean survival time, dose: 200.0 mg/kg/injection, schedule: Q01DX009 (ip), vehicle: saline with Tween-80
[14] = endpoint: mean survival time, dose: 400.0 mg/kg/injection, schedule: Q01DX009 (ip), vehicle: saline with Tween-80
[15] = endpoint: mean survival time, dose: 100.0 mg/kg/injection, schedule: Q01DX009 (ip), vehicle: saline
[16] = endpoint: mean survival time, dose: 200.0 mg/kg/injection, schedule: Q01DX009 (ip), vehicle: saline
[17] = endpoint: mean survival time, dose: 400.0 mg/kg/injection, schedule: Q01DX009 (ip), vehicle: saline
[18] = endpoint: mean survival time, dose: 100.0 mg/kg/injection, schedule: Q04DX003 (ip), vehicle: saline

Measured: T/C

OC(O)(C(F)(F)F)C(F)(F)F
inactive: endpoint: mean survival time, dose: 50.0 mg/kg/injection, schedule: Q01DX005 (ip), vehicle: saline 103 % of control | endpoint: mean survival time, dose: 100.0 mg/kg/injection, schedule: Q01DX005 (ip), vehicle: saline 91 % of control | [1] 103 % of control | [2] 109 % of control

O=[N+]([O-])c1ccc2nc3ccccc3cc2c1
inactive: [3] 92 % of control | [4] 92 % of control | [5] 91 % of control

ClC(Cl)(Cl)C(c1ccccc1)c1ccccc1
inactive: [6] 96 % of control | [7] 93 % of control | [3] 101 % of control | [8] 93 % of control | [4] 95 % of control | [5] 90 % of control

O=C(NCCCl)Nc1cccc(Cl)c1
inactive: [9] 87 % of control | [10] 102 % of control | [11] 90 % of control

COC(=O)[C@@]12OC[C@]34[C@H]([C@@H](O)[C@@H]1O)[C@@]1(C)CC(=O)C(O)=C(C)[C@@H]1C[C@H]3OC(=O)[C@H](OC(=O)/C=C(\C)C(C)C)[C@@H]24
inactive: endpoint: mean survival time, dose: 125.0 micrograms/kg/injection, schedule: Q01DX009 (ip), vehicle: saline + alcohol 120 % of control | endpoint: mean survival time, dose: 250.0 micrograms/kg/injection, schedule: Q01DX009 (ip), vehicle: saline + alcohol 106 % of control | endpoint: mean survival time, dose: 500.0 micrograms/kg/injection, schedule: Q01DX009 (ip), vehicle: saline + alcohol 112 % of control | endpoint: mean survival time, dose: 1000.0 micrograms/kg/injection, schedule: Q01DX009 (ip), vehicle: saline + alcohol 120 % of control | endpoint: median survival time, dose: 0.25 mg/kg/injection, schedule: Q01DX009 (ip), vehicle: saline + alcohol 120 % of control and 122 % of control | endpoint: median survival time, dose: 0.5 mg/kg/injection, schedule: Q01DX009 (ip), vehicle: saline + alcohol 120 % of control

CN(Cc1ccccc1)N=Nc1ccc(C(=O)O)cc1
inactive: endpoint: mean survival time, dose: 25.0 mg/kg/injection, schedule: Q01DX009 (ip), vehicle: other 105 % of control | endpoint: mean survival time, dose: 50.0 mg/kg/injection, schedule: Q01DX009 (ip), vehicle: other 108 % of control | endpoint: mean survival time, dose: 100.0 mg/kg/injection, schedule: Q01DX009 (ip), vehicle: other 101 % of control

COC1C(O)CC(OC2CC(OC3CC(O[C@@H]4C(=O)c5c(cc6cc(OC7CC(OC8CC(O)C(O)C(C)O8)C(O)C(C)O7)c(C)c(O)c6c5O)C[C@H]4[C@H](OC)C(=O)[C@@H](O)[C@@H](C)O)OC(C)C3O)OC(C)C2O)OC1C (stereo partly drawn)
inactive: endpoint: mean survival time, dose: 0.09 mg/kg/injection, schedule: Q01DX009 (ip), vehicle: saline 97 % of control | endpoint: mean survival time, dose: 0.18 mg/kg/injection, schedule: Q01DX009 (ip), vehicle: saline 103 % of control | endpoint: mean survival time, dose: 0.37 mg/kg/injection, schedule: Q01DX009 (ip), vehicle: saline 111 % of control | endpoint: mean survival time, dose: 0.75 mg/kg/injection, schedule: Q01DX009 (ip), vehicle: saline 104 % of control | endpoint: mean survival time, dose: 1.5 mg/kg/injection, schedule: Q01DX009 (ip), vehicle: saline 95 % of control | endpoint: mean survival time, dose: 375.0 micrograms/kg/injection, schedule: Q01DX009 (ip), vehicle: saline 110 % of control | endpoint: mean survival time, dose: 750.0 micrograms/kg/injection, schedule: Q01DX009 (ip), vehicle: saline 115 % of control | endpoint: mean survival time, dose: 1500.0 micrograms/kg/injection, schedule: Q01DX009 (ip), vehicle: saline 109 % of control | endpoint: mean survival time, dose: 3000.0 micrograms/kg/injection, schedule: Q01DX009 (ip), vehicle: saline 104 % of control

CC(C)CCCC(C)C1CCC2C3CCC4=CC5(CCC4(C)C3CCC12C)SCCS5 (stereo not drawn)
inactive: [9] 87 % of control | [10] 91 % of control

O=c1cc(NCCCCc2ccccc2)[nH]c(=O)[nH]1
inactive: [9] 94 % of control | [10] 91 % of control | [11] 91 % of control

Cn1c(=O)c2c(ncn2CCNCC(O)c2ccc(O)c(O)c2)n(C)c1=O (stereo not drawn)
inactive: endpoint: mean survival time, dose: 12.5 mg/kg/injection, schedule: Q01DX005 (ip), vehicle: water 100 % of control | endpoint: mean survival time, dose: 25.0 mg/kg/injection, schedule: Q01DX005 (ip), vehicle: water 106 % of control | endpoint: mean survival time, dose: 50.0 mg/kg/injection, schedule: Q01DX005 (ip), vehicle: water 97 % of control | endpoint: mean survival time, dose: 100.0 mg/kg/injection, schedule: Q01DX005 (ip), vehicle: water 101 % of control | endpoint: mean survival time, dose: 200.0 mg/kg/injection, schedule: Q01DX005 (ip), vehicle: water 106 % of control

CCCCCCCCCCCCCCCc1cc(O)ccc1[N+](=O)[O-]
inactive: [12] 111 % of control | [13] 115 % of control | [14] 96 % of control

CC12OC3(C)C4C(O)C1C1(C)OC4(C)C3C(O)C21 (stereo not drawn)
inactive: [15] 96 % of control | [16] 102 % of control | [17] 98 % of control

N#CCN(CC#N)CCN(CC#N)CC#N
inactive: [12] 92 % of control | [3] 97 % of control | [13] 93 % of control | [4] 97 % of control | [14] 104 % of control | [5] 97 % of control

COC(=O)C1(c2ccccn2)CCN(C)CC1
inactive: [15] 102 % of control | [16] 98 % of control | [17] 101 % of control

COc1ccccc1N1CCCSC1=Nc1ccccc1
inactive: [1] 98 % of control | [2] 94 % of control

CN(C)N=Nc1ccccc1C(=O)NCC(N)=O
inactive: endpoint: mean survival time, dose: 18.75 mg/kg/injection, schedule: Q01DX009 (ip), vehicle: Klucel (hydroxypropylcellulose) (HPC) 103 % of control and 107 % of control | endpoint: mean survival time, dose: 37.5 mg/kg/injection, schedule: Q01DX009 (ip), vehicle: Klucel (hydroxypropylcellulose) (HPC) 115 % of control and 112 % of control

O=[N+]([O-])c1ccc(N/N=C/c2cccc(CO)c2)c([N+](=O)[O-])c1
inactive: [18] 94 % of control | endpoint: mean survival time, dose: 200.0 mg/kg/injection, schedule: Q04DX003 (ip), vehicle: saline 88 % of control | endpoint: mean survival time, dose: 400.0 mg/kg/injection, schedule: Q04DX003 (ip), vehicle: saline 96 % of control

CCC(=O)c1ccc(OC(C)=O)c(OC(C)=O)c1
inactive: [15] 96 % of control | [16] 96 % of control | [17] 96 % of control

CC(CCC1OC2CC3C4CCC5CC(OC(=O)c6ccccc6)CCC5(C)C4CCC3(C)C2C1C)COC(=O)c1ccccc1 (stereo not drawn)
inactive: endpoint: mean survival time, dose: 100.0 mg/kg/injection, schedule: Q04DX002 (ip), vehicle: saline with Tween-80 90 % of control | endpoint: mean survival time, dose: 200.0 mg/kg/injection, schedule: Q04DX002 (ip), vehicle: saline with Tween-80 94 % of control | endpoint: mean survival time, dose: 400.0 mg/kg/injection, schedule: Q04DX002 (ip), vehicle: saline with Tween-80 86 % of control

COc1ccc(OC)c(CCc2cc(OC)ccc2OC)c1
inactive: endpoint: mean survival time, dose: 12.5 mg/kg/injection, schedule: Q04DX003 (ip), vehicle: other 97 % of control | endpoint: mean survival time, dose: 25.0 mg/kg/injection, schedule: Q04DX003 (ip), vehicle: other 86 % of control | endpoint: mean survival time, dose: 50.0 mg/kg/injection, schedule: Q04DX003 (ip), vehicle: other 97 % of control

CC(=O)NC(C=O)CC(C=O)CO (stereo not drawn)
inactive: endpoint: mean survival time, dose: 50.0 mg/kg/injection, schedule: Q01DX009 (ip), vehicle: saline 103 % of control | endpoint: mean survival time, dose: 50.0 mg/kg/injection, schedule: Q04DX003 (ip), vehicle: saline 107 % of control | [15] 107 % of control | [18] 109 % of control | endpoint: mean survival time, dose: 150.0 mg/kg/injection, schedule: Q04DX003 (ip), vehicle: saline 108 % of control | [16] 95 % of control

CC(=O)OC1CCC2(C)C(=CCC3C2CCC2(C)C(C(C)CCCC(C)C)CCC32)C1 (stereo not drawn)
inactive: [6] 96 % of control | [7] 93 % of control | [8] 86 % of control

Cn1c(=O)c2c(nc(N3CCOCC3)n2CC(O)CF)n(C)c1=O (stereo not drawn)
inactive: endpoint: mean survival time, dose: 12.5 mg/kg/injection, schedule: Q01DX005 (ip), vehicle: distilled water + Tween-80 95 % of control | endpoint: mean survival time, dose: 25.0 mg/kg/injection, schedule: Q01DX005 (ip), vehicle: distilled water + Tween-80 98 % of control | endpoint: mean survival time, dose: 50.0 mg/kg/injection, schedule: Q01DX005 (ip), vehicle: distilled water + Tween-80 103 % of control | endpoint: mean survival time, dose: 100.0 mg/kg/injection, schedule: Q01DX005 (ip), vehicle: distilled water + Tween-80 97 % of control | endpoint: mean survival time, dose: 200.0 mg/kg/injection, schedule: Q01DX005 (ip), vehicle: distilled water + Tween-80 104 % of control

OCC1=CCN(CCc2c[nH]c3ccccc23)CC1
inactive: [12] 96 % of control | [13] 96 % of control

CC1CC2OC(=O)C(O)(CO)C2CC2(C)C(=O)C=CC12 (stereo not drawn)
inactive: endpoint: mean survival time, dose: 25.0 mg/kg/injection, schedule: Q04DX002 (ip), vehicle: saline 102 % of control | endpoint: mean survival time, dose: 50.0 mg/kg/injection, schedule: Q04DX002 (ip), vehicle: saline 107 % of control
